What all share (format): biochemical
One assay addresses T1, Human MMP17 (Homo sapiens, UniProt Q9ULZ9).
T1 construct: purchased Calbiochem 475940
T1 sequence (Q9ULZ9 126-300 limits assumed): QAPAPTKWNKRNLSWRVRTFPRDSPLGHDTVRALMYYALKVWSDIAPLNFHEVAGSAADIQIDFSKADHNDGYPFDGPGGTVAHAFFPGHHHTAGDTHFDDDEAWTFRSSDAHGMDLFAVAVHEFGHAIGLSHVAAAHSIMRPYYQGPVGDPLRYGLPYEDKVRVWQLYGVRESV
The assay can be described thus: MMP17 inhibition test. The following applies: concentration required for 50% inhibition of enzyme activity; read-out: IC50 value MMP-17.

The target of another assay is T2, Human MMP13 (Homo sapiens, UniProt P45452).
T2 construct: purchased Chemicon CC068
The assay can be described thus: MMP13 inhibition experiment. Conditions: concentration required for 50% inhibition of enzyme activity; read-out: IC50 value MMP-13.

The next assay deals with T3, Human MMP9 (Homo sapiens, UniProt P14780).
T3 construct: purchased Calbiochem 444231
The assay can be described thus: MMP9 inhibition experiment. The following applies: read-out: IC50 value MMP-9.

Another assay concerns the target T4, Human MMP14 (Homo sapiens, UniProt P50281).
T4 construct: purchased Biogenesis or Calbiochem 5980-1461 or 475935
The assay can be described thus: MMP14 inhibition experiment. The following applies: concentration required for 50% inhibition of enzyme activity; read-out: IC50 value MMP-14. The method, boiled down:
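Fluorescence assay: substrate Dnp-Pro-Cha-Gly-Cys(Me)-His-Ala-Lys(Nma)-NH2 (20 μM before equal-volume mixing) incubated at 37° C for 5 hours with 4 ng human MMP14.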

A further assay addresses T5, Human MMP3 (Homo sapiens, UniProt P08254).
T5 construct: purchased Calbiochem 444217
The assay can be described thus: MMP3 inhibition experiment. Conditions: concentration required for 50% inhibition of enzyme activity; read-out: IC50 value MMP-3. The procedure, abridged:
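Fluorescence-quenched substrate NFF-3 (MOCAc/Dnp peptide, 20 μM as prepared) cleaved by 5 ng human MMP3 over 5 hours at 37° C, with inhibition measured from substrate fluorescence.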

For a further assay, the target named is T6, Human MMP1 (Homo sapiens, UniProt P03956).
T6 construct: purchased Calbiochem 444208
T6 sequence (P03956 100-469): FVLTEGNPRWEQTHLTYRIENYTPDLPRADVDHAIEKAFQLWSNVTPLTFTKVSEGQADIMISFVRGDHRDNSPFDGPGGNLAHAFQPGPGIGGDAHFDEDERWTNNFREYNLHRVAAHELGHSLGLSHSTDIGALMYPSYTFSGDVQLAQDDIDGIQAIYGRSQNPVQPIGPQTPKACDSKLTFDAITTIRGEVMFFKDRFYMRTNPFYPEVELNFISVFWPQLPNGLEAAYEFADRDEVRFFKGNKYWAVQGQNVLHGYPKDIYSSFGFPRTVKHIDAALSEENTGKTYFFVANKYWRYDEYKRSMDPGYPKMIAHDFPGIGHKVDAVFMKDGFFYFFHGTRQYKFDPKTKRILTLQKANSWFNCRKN
The assay can be described thus: MMP1 inhibition experiment. Conditions: read-out: IC50 value MMP-1.

Another assay has as its target T7, TACE (Homo sapiens, UniProt P78536).
T7 construct: made in house; host or cells: mammalian cells or insect cells
The assay can be described thus: TACE inhibition experiment (in vitro).

The next assay has as its target T8, Human MMP2 (Homo sapiens, UniProt P08253).
T8 construct: purchased Calbiochem 444213
T8 sequence (P08253 110-660): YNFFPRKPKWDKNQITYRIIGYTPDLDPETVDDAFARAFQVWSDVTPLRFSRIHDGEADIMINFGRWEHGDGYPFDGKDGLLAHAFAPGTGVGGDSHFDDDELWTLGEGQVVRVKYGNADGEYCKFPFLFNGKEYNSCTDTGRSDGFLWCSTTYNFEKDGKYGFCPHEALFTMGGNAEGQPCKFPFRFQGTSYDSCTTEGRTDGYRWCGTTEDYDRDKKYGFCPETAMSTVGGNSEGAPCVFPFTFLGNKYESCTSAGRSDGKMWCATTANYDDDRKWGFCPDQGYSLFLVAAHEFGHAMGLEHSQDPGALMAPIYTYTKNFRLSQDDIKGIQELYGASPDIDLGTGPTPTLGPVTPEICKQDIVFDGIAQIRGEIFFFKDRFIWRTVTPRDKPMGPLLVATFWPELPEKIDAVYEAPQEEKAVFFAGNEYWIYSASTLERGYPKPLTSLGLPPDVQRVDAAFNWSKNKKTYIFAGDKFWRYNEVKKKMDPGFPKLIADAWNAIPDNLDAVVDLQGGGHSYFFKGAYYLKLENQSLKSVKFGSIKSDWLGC
The assay can be described thus: MMP2 inhibition experiment. The following applies: concentration required for 50% inhibition of enzyme activity; read-out: IC50 value MMP-2.

Another assay has as its target T9, Human MMP8 (Homo sapiens, UniProt P22894).
T9 construct: purchased Calbiochem 444229
The assay can be described thus: MMP8 inhibition experiment. The following applies: concentration required for 50% inhibition of enzyme activity; read-out: IC50 value MMP-8. Here is the method: MMP inhibition experiment may be carried out using a fluorescent synthetic substrate according to, for example, the methods of Bickett et al. (D. Mark Bickett et al., Anal. Biochem., 1993, 212, 58-64) and Nagase et al. (H. Nagase et al., J. Biol. Chem., 1994, 269, 20952-20957). The methods of inhibition experiments carried out for various MMPs are described below.
Human MMP8 (Calbiochem #444229) in amount of 90 μL (30 ng) was activated by mixing with 10 μL of 10 mM APMA, followed by reaction for 1 hour at 37° C. This enzyme solution in amount of 10 μL was diluted to 90 μL with the assay buffer A, which was added to 90 μL of […] fluorescent substrate (MOCAc-Pro-Leu-Gly-Leu-A2pr(Dnp)-Ala-Arg-NH2, Peptide Institute, Inc., #3163-v) prepared in the assay buffer B, followed by reaction for 5 hours at 37° C.

In US7511144B2, “Reverse hydroxamic acid derivatives” (Kaken Pharmaceutical Co., Ltd., priority 2001, dated 2009) one finds IC50 data, which are given here for 13 molecules.

T9 sequence (P22894 101-467): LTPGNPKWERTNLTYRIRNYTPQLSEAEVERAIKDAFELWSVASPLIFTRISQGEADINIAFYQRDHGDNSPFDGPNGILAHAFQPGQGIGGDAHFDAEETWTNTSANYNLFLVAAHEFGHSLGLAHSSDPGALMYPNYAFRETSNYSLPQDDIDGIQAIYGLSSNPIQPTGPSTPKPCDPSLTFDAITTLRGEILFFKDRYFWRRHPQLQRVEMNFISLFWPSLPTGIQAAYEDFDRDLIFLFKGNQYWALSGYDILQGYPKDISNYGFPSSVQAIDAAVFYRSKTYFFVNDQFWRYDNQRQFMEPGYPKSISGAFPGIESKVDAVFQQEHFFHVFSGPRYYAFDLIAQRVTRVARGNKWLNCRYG
T5 sequence (P08254 100-272 limits assumed): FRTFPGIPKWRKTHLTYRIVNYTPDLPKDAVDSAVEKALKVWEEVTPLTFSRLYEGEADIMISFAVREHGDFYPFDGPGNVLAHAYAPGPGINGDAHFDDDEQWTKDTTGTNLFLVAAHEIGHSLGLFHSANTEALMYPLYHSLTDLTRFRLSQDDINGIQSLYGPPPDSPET
T7 sequence (P78536 215-824): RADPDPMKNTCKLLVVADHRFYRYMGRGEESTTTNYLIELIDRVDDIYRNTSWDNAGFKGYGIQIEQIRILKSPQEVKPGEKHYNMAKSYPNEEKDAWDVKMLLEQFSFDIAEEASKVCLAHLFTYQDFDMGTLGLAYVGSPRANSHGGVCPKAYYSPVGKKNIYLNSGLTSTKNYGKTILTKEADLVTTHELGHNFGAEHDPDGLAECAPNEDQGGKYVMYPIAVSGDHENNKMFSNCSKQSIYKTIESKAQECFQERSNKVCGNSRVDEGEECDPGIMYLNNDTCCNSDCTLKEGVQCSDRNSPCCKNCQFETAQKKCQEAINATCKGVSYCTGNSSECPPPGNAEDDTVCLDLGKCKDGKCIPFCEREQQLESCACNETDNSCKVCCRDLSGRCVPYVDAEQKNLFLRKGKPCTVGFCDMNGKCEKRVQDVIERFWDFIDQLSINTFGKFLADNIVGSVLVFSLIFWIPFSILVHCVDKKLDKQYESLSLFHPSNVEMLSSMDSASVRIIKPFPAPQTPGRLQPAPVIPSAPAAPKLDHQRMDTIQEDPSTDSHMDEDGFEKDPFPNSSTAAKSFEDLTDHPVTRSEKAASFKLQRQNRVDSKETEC
T3 sequence (P14780 107-707 limits assumed): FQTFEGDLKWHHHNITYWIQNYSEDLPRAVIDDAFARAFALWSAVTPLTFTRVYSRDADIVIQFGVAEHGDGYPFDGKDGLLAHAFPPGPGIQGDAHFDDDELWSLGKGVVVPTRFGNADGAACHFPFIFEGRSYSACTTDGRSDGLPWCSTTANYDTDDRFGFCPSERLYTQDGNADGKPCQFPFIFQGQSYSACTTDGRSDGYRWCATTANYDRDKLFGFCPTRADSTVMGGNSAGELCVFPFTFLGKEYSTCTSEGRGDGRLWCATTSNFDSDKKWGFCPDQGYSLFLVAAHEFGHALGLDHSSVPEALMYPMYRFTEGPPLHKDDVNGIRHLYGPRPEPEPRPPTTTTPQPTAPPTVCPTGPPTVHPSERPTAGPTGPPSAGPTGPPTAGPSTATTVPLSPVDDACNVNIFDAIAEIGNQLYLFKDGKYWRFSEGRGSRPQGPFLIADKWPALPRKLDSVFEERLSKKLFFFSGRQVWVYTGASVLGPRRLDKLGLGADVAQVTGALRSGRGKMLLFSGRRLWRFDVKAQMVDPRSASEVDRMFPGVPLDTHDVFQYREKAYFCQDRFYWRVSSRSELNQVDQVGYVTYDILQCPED
Protocol for Human MMP13: Human MMP13 (Chemicon #CC068) in amount of 90 μL (200 ng) was activated by mixing with 10 μL of 10 mM APMA, followed by reaction for 1 hour at 37° C. This enzyme solution in amount of 0.6 μL was diluted to 90 μL with the assay buffer A, which was added to 90 μL of 20 μM fluorescent substrate (Dnp-Pro-Cha-Gly-Cys(Me)-His-Ala-Lys(Nma)-NH2) prepared in the assay buffer B, followed by reaction for 4 hours at 37° C.
Protocol for Human MMP2: This enzyme solution in amount of 10 μL was diluted to 90 μL with the assay buffer A, which was added to 90 μL of 20 μM fluorescent substrate (MOCAc((7-methoxycoumarin-4-yl)acetyl)-Pro-Leu-Gly-Leu-A2pr(Dnp)-Ala-Arg-NH2, Peptide Institute, Inc., #3163-v) prepared in the assay buffer B, followed by reaction for 5 hours at 37° C.
Protocol for Human MMP9: This enzyme solution in amount of 1 μL was diluted to 90 μL with the assay buffer A, which was added to 90 μL of 20 μM fluorescent substrate (Dnp-Pro-Cha-Gly-Cys(Me)-His-Ala-Lys(Nma)-NH2) prepared in the assay buffer B, followed by reaction for 4 hours at 37° C.
Protocol for TACE: TACE inhibition experiments were conducted using TACE obtained as above as an enzyme and by measuring TACE activity in the presence or absence of a test substance using Nma (N-metylanthranilic acid)-[sequence]Dnp(dinitrophenyl)-D-Arg-NH2 being a fluorescent synthetic substrate which contains the sequence of cleavage site of membrane-bound TNF by TACE, as a substrate.
More specifically, 14 units of an enzyme solution (1 unit is defined as the amount of enzyme which degrades 1 pmol of the substrate per minute at 25° C.) which was prepared in 90 μL of assay buffer A (50 mM Tris-HCl buffer (pH 7.5) containing 200 mM sodium chloride, 5 mM calcium chloride, 10 μM zinc sulfate, 0.004% sodium azide and 2 mg/mL bovine serum albumin) and 90 μL of 20 μM fluorescent synthetic substrate prepared in assay buffer B (50 mM Tris-HCl buffer (pH 7.5) containing 200 mM sodium chloride, 5 mM calcium chloride, 10 μM zinc sulfate, 0.004% sodium azide and 0.05% PLURONIC F-68) are mixed and reacted for 2 hours at 37° C.

A word on the IC50: it is the point on the concentration scale where inhibition reaches its midpoint. Turning to `Cc1cc(COc2ccc(S(=O)(=O)CC(CCC3=CCCC(OC=O)C3)N(O)C=O)cc2)c2ccccc2n1` (stereo not drawn) [Example I-38], the IC50 was found to be 2.2 µM on Human MMP17; 22 µM at Human MMP13; 54 µM at Human MMP9; 50 µM on Human MMP14; 2 µM at Human MMP3; 57 µM on Human MMP1. In addition, the figures for the IC50 at TACE, on Human MMP2 and on Human MMP8 were 0.012 µM, 12 µM and 46 µM, respectively.

In the case of `Cc1cccc(CCC(CS(=O)(=O)c2ccc(OCc3cc(C)nc4ccccc34)cc2)N(O)C=O)c1` (stereo not drawn) [Example I-39], the IC50 worked out at 25 µM at Human MMP17; 26 µM at Human MMP13; 36 µM at Human MMP9; 43 µM at Human MMP14; 24 µM on Human MMP3; 73 µM at Human MMP1. Moreover, the IC50 against TACE was 0.21 µM; at Human MMP2, 30 µM; on Human MMP8, over 100 µM.

`CC(=O)N1CCC(=CC(CS(=O)(=O)c2ccc(OCc3cc(C)nc4ccccc34)cc2)N(O)C=O)CC1` (stereo not drawn) [Example I-41]: the IC50 on Human MMP17 was 3.7 µM; on Human MMP13, 50 µM; on Human MMP9 it was over 100 µM; on Human MMP14, over 100 µM; at Human MMP3, 4.8 µM; at Human MMP1, over 100 µM. For the same molecule, the IC50 at TACE turned out to be 0.0031 µM; at Human MMP2, 41 µM; at Human MMP8, 50 µM.

In the case of `CCC(CC)C(=O)N1CCC(=CC(CS(=O)(=O)c2ccc(OCc3cc(C)nc4ccccc34)cc2)N(O)C=O)CC1` (stereo not drawn) [Example I-42], the IC50 was determined as 2.3 µM on Human MMP17; 20 µM on Human MMP13; 52 µM at Human MMP9; 38 µM on Human MMP14; 2.2 µM on Human MMP3; 70 µM on Human MMP1. The figures for the IC50 on TACE, at Human MMP2 and at Human MMP8 were 0.0029 µM, 18 µM and 61 µM, respectively.

As for `Cc1cc(COc2ccc(S(=O)(=O)CC(C=C3CCN(C=O)CC3)N(O)C=O)cc2)c2ccccc2n1` (stereo not drawn) [Example I-43], the IC50 at Human MMP17 is 4.5 µM; at Human MMP13, 65 µM; at Human MMP9, over 100 µM; on Human MMP14, over 100 µM; at Human MMP3, 11 µM; on Human MMP1, over 100 µM. Also, the IC50 against TACE turned out to be 0.0031 µM; on Human MMP2, 50 µM; on Human MMP8, 52 µM.

`CCC(CC)CN1CCC(=CC(CS(=O)(=O)c2ccc(OCc3cc(C)nc4ccccc34)cc2)N(O)C=O)CC1` (stereo not drawn) [Example I-44]: the 50% inhibitory concentration (IC50) was 1.1 µM at Human MMP17; 20 µM on Human MMP13; over 100 µM on Human MMP9; 60 µM at Human MMP14; 3 µM on Human MMP3; over 100 µM at Human MMP1. Further, the IC50 against TACE is 0.0078 µM; on Human MMP2, 6.5 µM; on Human MMP8, 42 µM.

As for `Cc1cc(COc2ccc(S(=O)(=O)CC(C=C3CCN(Cc4ccccc4)CC3)N(O)C=O)cc2)c2ccccc2n1` (stereo not drawn) [Example I-45], the IC50 worked out at 0.27 µM on Human MMP17; 2 µM on Human MMP13; 40 µM on Human MMP9; 9 µM on Human MMP14; 0.26 µM on Human MMP3; 85 µM at Human MMP1. Besides, the IC50 on TACE stood at 0.005 µM; at Human MMP2, 1 µM; at Human MMP8, 5 µM.

As for `Cc1cc(COc2ccc(S(=O)(=O)CC(N(O)C=O)C3(C)CCC4(CC3)OCCO4)cc2)c2ccccc2n1` (stereo not drawn) [Example I-47], the IC50 at Human MMP17 was 0.4 µM; at Human MMP13 it was 18 µM; on Human MMP9, over 100 µM; on Human MMP14, 60 µM; at Human MMP3 it was 0.6 µM; at Human MMP1 it was over 100 µM. The values for the IC50 on TACE, at Human MMP2 and on Human MMP8 were 0.03 µM, 22 µM and 15 µM, respectively.

As to `Cc1cc(COc2ccc(S(=O)(=O)CC(N(O)C=O)C3(C)CCC(=O)CC3)cc2)c2ccccc2n1` (stereo not drawn) [Example I-48], the IC50 was 1 µM at Human MMP17; 50 µM on Human MMP13; over 100 µM on Human MMP9; over 100 µM at Human MMP14; 2.8 µM on Human MMP3; over 100 µM on Human MMP1. The half-inhibitory concentration (IC50) against TACE was 0.019 µM; on Human MMP2, 70 µM; at Human MMP8, 18 µM.

In the case of `Cc1cc(COc2ccc(S(=O)(=O)CC(C3CCOCC3)N(O)C=O)cc2)c2ccccc2n1` (stereo not drawn) [Example I-49], the IC50 is 0.61 µM on Human MMP17; 30 µM at Human MMP13; over 100 µM on Human MMP9; 90 µM on Human MMP14; 2 µM at Human MMP3; over 100 µM at Human MMP1. The results for the IC50 against TACE, on Human MMP2 and on Human MMP8 were 0.013 µM, 24 µM and 9 µM, respectively.

As for `Cc1cc(COc2ccc(S(=O)(=O)CC(CC3CCN(C(=O)c4ccccc4)CC3)N(O)C=O)cc2)c2ccccc2n1` (stereo not drawn) [Example I-50], the IC50 at Human MMP17 came to 0.2 µM; on Human MMP13, 3 µM; at Human MMP9, 31 µM; on Human MMP14 it was 30 µM; at Human MMP3, 0.2 µM; on Human MMP1, 60 µM. For the same molecule, the IC50 on TACE amounted to 0.013 µM; at Human MMP2, 1.4 µM; at Human MMP8, 5.8 µM.

`CCC(CC)C(=O)N1CCC(CC(CS(=O)(=O)c2ccc(OCc3cc(C)nc4ccccc34)cc2)N(O)C=O)CC1` (stereo not drawn) [Example I-51]: the IC50 on Human MMP17 was determined as 0.4 µM; on Human MMP13, 5.8 µM; at Human MMP9, 37 µM; on Human MMP14, 40 µM; at Human MMP3, 0.35 µM; on Human MMP1 it was 60 µM. The IC50 at TACE was determined as 0.01 µM; at Human MMP2 it was 3.2 µM; on Human MMP8, 7.6 µM.

With `Cc1cc(COc2ccc(S(=O)(=O)CC(CN3CCN(S(C)(=O)=O)CC3)N(O)C=O)cc2)c2ccccc2n1` (stereo not drawn) [Example I-52], the IC50 was 1.6 µM on Human MMP17; 40 µM on Human MMP13; over 100 µM at Human MMP9; over 100 µM at Human MMP14; 1 µM at Human MMP3; over 100 µM at Human MMP1. The IC50 is 0.012 µM at TACE, 22 µM at Human MMP2 and 42 µM on Human MMP8.
